Source: the supplement of paper PMC13207355

Assays:
Settings in all cases: exposure time: 72 h
[1] = system: FT3469 (normal neural stem cell line); assay: surviving fraction (nuclei count normalised to DMSO); higher = more cells surviving (less toxic)
[2] = system: E34 (patient-derived glioblastoma stem cells of proneural subtype); assay: as above
[3] = system: E21 (patient-derived glioblastoma stem cells of mesenchymal subtype); assay: as above
[4] = system: E28 (patient-derived glioblastoma stem cells of classical subtype); assay: as above
[5] = system: E31 (patient-derived glioblastoma stem cells of proneural subtype); assay: as above
[6] = system: E13 (patient-derived glioblastoma stem cells of classical subtype); assay: as above
[7] = system: E57 (patient-derived glioblastoma stem cells of mesenchymal subtype); assay: as above
[8] = system: FT3469; assay: phenotypic distance (Euclidean, principal components) from DMSO controls (arbitrary units); higher = stronger morphological change
[9] = system: E34; assay: as above
[10] = system: E21; assay: as above
[11] = system: E28; assay: as above
[12] = system: E31; assay: as above
[13] = system: E13; assay: as above
[14] = system: E57; assay: as above
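Throughout, for phenotypic distance (Euclidean, principal components) from DMSO controls: cell Painting imaging in 384-well plates, CellProfiler features reduced to at least 20 principal components, Euclidean distance versus same-plate DMSO vehicle wells (0.1% v/v), median over six images per well.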
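Throughout, for surviving fraction (nuclei count normalised to DMSO): nuclei counted by high-content imaging of Hoechst-stained cells in laminin-coated 384-well plates, relative to 0.1% DMSO vehicle wells, with staurosporine as cell-death control.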

O=C(O)c1ccc(-c2c[nH]c3ncc(-c4ccccc4)cc23)cc1C1CCCC1
Settings | phenotypic distance | surviving fraction
[1], 4.11523 nM | – | 0.822
[1], 12.34567901 nM | – | 0.943
[1], 37.037 nM | – | 0.972
[1], 111.1111111 nM | – | 0.987
[1], 333.333 nM | – | 0.813
[1], 1000 nM | – | 0.996
[1], 3000 nM | – | 0.766
[2], 4.11523 nM | – | 0.913
[2], 12.34567901 nM | – | 1.06
[2], 37.037 nM | – | 0.86
[2], 111.1111111 nM | – | 0.909
[2], 333.333 nM | – | 0.805
[2], 1000 nM | – | 0.714
[2], 3000 nM | – | 0.527
[3], 4.11523 nM | – | 0.933
[3], 12.34567901 nM | – | 0.832
[3], 37.037 nM | – | 0.918
[3], 111.1111111 nM | – | 0.783
[3], 333.333 nM | – | 0.803
[3], 1000 nM | – | 0.681
[3], 3000 nM | – | 0.52
[4], 4.11523 nM | – | 0.956
[4], 12.34567901 nM | – | 0.911
[4], 37.037 nM | – | 0.873
[4], 111.1111111 nM | – | 1.01
[4], 333.333 nM | – | 0.807
[4], 1000 nM | – | 0.755
[4], 3000 nM | – | 0.51
[5], 4.11523 nM | – | 1.04
[5], 12.34567901 nM | – | 1.01
[5], 37.037 nM | – | 0.885
[5], 111.1111111 nM | – | 1.14
[5], 333.333 nM | – | 0.798
[5], 1000 nM | – | 1.04
[5], 3000 nM | – | 0.688
[6], 4.11523 nM | – | 0.996
[6], 12.34567901 nM | – | 0.826
[6], 37.037 nM | – | 0.899
[6], 111.1111111 nM | – | 0.825
[6], 333.333 nM | – | 0.72
[6], 1000 nM | – | 0.588
[6], 3000 nM | – | 0.413
[7], 4.11523 nM | – | 0.932
[7], 12.34567901 nM | – | 0.905
[7], 37.037 nM | – | 0.923
[7], 111.1111111 nM | – | 0.916
[7], 333.333 nM | – | 0.835
[7], 1000 nM | – | 0.6
[7], 3000 nM | – | 0.35
[8], 4.11523 nM | 0.839 | –
[8], 12.34567901 nM | 1.18 | –
[8], 37.037 nM | 0.627 | –
[8], 111.1111111 nM | 1.11 | –
[8], 333.333 nM | 0.969 | –
[8], 1000 nM | 1.71 | –
[8], 3000 nM | 2.49 | –
[9], 4.11523 nM | 1.13 | –
[9], 12.34567901 nM | 0.775 | –
[9], 37.037 nM | 0.829 | –
[9], 111.1111111 nM | 1.03 | –
[9], 333.333 nM | 1.12 | –
[9], 1000 nM | 2.9 | –
[9], 3000 nM | 4.8 | –
[10], 4.11523 nM | 0.656 | –
[10], 12.34567901 nM | 0.914 | –
[10], 37.037 nM | 0.757 | –
[10], 111.1111111 nM | 0.832 | –
[10], 333.333 nM | 0.828 | –
[10], 1000 nM | 1.75 | –
[10], 3000 nM | 4.49 | –
[11], 4.11523 nM | 0.635 | –
[11], 12.34567901 nM | 0.785 | –
[11], 37.037 nM | 0.418 | –
[11], 111.1111111 nM | 0.61 | –
[11], 333.333 nM | 0.687 | –
[11], 1000 nM | 1.26 | –
[11], 3000 nM | 2.4 | –
[12], 4.11523 nM | 0.443 | –
[12], 12.34567901 nM | 0.638 | –
[12], 37.037 nM | 0.948 | –
[12], 111.1111111 nM | 0.662 | –
[12], 333.333 nM | 1.08 | –
[12], 1000 nM | 1.15 | –
[12], 3000 nM | 1.91 | –
[13], 4.11523 nM | 3.86 | –
[13], 12.34567901 nM | 2.38 | –
[13], 37.037 nM | 0.747 | –
[13], 111.1111111 nM | 0.749 | –
[13], 333.333 nM | 1 | –
[13], 1000 nM | 2.77 | –
[13], 3000 nM | 5.39 | –
[14], 4.11523 nM | 0.657 | –
[14], 12.34567901 nM | 0.719 | –
[14], 37.037 nM | 0.687 | –
[14], 111.1111111 nM | 1.04 | –
[14], 333.333 nM | 0.598 | –
[14], 1000 nM | 1.78 | –
[14], 3000 nM | 4.38 | –
